Values of other authors, collected in publication PMC11728000, “Antitumor Activity and Multi-Target Mechanism of Phenolic Schiff Bases Bearing Methanesulfonamide Fragments: Cell Cycle Analysis and a Molecular Modeling Study” (International Journal of Molecular Sciences, 2024).

Columns and labels:
[1] = test system: SR; parameters: method as in https://dtp.cancer.gov/dtpstandard/dwindex/index.jsp; settings: ref https://dtp.cancer.gov/dtpstandard/dwindex/index.jsp; cited from earlier work
[2] = test system: UACC-257; parameters: method as in https://dtp.cancer.gov/dtpstandard/dwindex/index.jsp; settings: ref https://dtp.cancer.gov/dtpstandard/dwindex/index.jsp; cited from earlier work
[3] = test system: PC-3; parameters: method as in https://dtp.cancer.gov/dtpstandard/dwindex/index.jsp; settings: ref https://dtp.cancer.gov/dtpstandard/dwindex/index.jsp; cited from earlier work
[4] = test system: IGROV1; parameters: method as in https://dtp.cancer.gov/dtpstandard/dwindex/index.jsp; settings: ref https://dtp.cancer.gov/dtpstandard/dwindex/index.jsp; cited from earlier work
[5] = test system: HS 578T; parameters: method as in https://dtp.cancer.gov/dtpstandard/dwindex/index.jsp; settings: ref https://dtp.cancer.gov/dtpstandard/dwindex/index.jsp; cited from earlier work
[6] = test system: SK-MEL-28; parameters: method as in https://dtp.cancer.gov/dtpstandard/dwindex/index.jsp; settings: ref https://dtp.cancer.gov/dtpstandard/dwindex/index.jsp; cited from earlier work
[7] = test system: Leukemia subpanel tumor cell lines; settings: cited from earlier work
[8] = test system: CCRF-CEM; parameters: method as in https://dtp.cancer.gov/dtpstandard/dwindex/index.jsp; settings: ref https://dtp.cancer.gov/dtpstandard/dwindex/index.jsp; cited from earlier work
[9] = test system: K-562; parameters: method as in https://dtp.cancer.gov/dtpstandard/dwindex/index.jsp; settings: ref https://dtp.cancer.gov/dtpstandard/dwindex/index.jsp; cited from earlier work
[10] = test system: LOX IMVI; parameters: method as in https://dtp.cancer.gov/dtpstandard/dwindex/index.jsp; settings: ref https://dtp.cancer.gov/dtpstandard/dwindex/index.jsp; cited from earlier work
[11] = test system: MCF-7; parameters: method as in https://dtp.cancer.gov/dtpstandard/dwindex/index.jsp; settings: ref https://dtp.cancer.gov/dtpstandard/dwindex/index.jsp; cited from earlier work
[12] = test system: SNB-19; parameters: method as in https://dtp.cancer.gov/dtpstandard/dwindex/index.jsp; settings: ref https://dtp.cancer.gov/dtpstandard/dwindex/index.jsp; cited from earlier work
[13] = test system: BT-549; parameters: method as in https://dtp.cancer.gov/dtpstandard/dwindex/index.jsp; settings: ref https://dtp.cancer.gov/dtpstandard/dwindex/index.jsp; cited from earlier work
[14] = test system: NCI-H522; parameters: method as in https://dtp.cancer.gov/dtpstandard/dwindex/index.jsp; settings: ref https://dtp.cancer.gov/dtpstandard/dwindex/index.jsp; cited from earlier work
[15] = test system: OVCAR-8; parameters: method as in https://dtp.cancer.gov/dtpstandard/dwindex/index.jsp; settings: ref https://dtp.cancer.gov/dtpstandard/dwindex/index.jsp; cited from earlier work
[16] = test system: SN12C; parameters: method as in https://dtp.cancer.gov/dtpstandard/dwindex/index.jsp; settings: ref https://dtp.cancer.gov/dtpstandard/dwindex/index.jsp; cited from earlier work
[17] = test system: UO-31; parameters: method as in https://dtp.cancer.gov/dtpstandard/dwindex/index.jsp; settings: ref https://dtp.cancer.gov/dtpstandard/dwindex/index.jsp; cited from earlier work
[18] = test system: HCT-15; parameters: method as in https://dtp.cancer.gov/dtpstandard/dwindex/index.jsp; settings: ref https://dtp.cancer.gov/dtpstandard/dwindex/index.jsp; cited from earlier work
[19] = test system: U251; parameters: method as in https://dtp.cancer.gov/dtpstandard/dwindex/index.jsp; settings: ref https://dtp.cancer.gov/dtpstandard/dwindex/index.jsp; cited from earlier work
[20] = test system: Ovarian Cancer subpanel tumor cell lines; settings: cited from earlier work
[21] = test system: OVCAR-5; parameters: method as in https://dtp.cancer.gov/dtpstandard/dwindex/index.jsp; settings: ref https://dtp.cancer.gov/dtpstandard/dwindex/index.jsp; cited from earlier work
[22] = test system: NCI-H226; parameters: method as in https://dtp.cancer.gov/dtpstandard/dwindex/index.jsp; settings: ref https://dtp.cancer.gov/dtpstandard/dwindex/index.jsp; cited from earlier work
[23] = test system: NCI-H460; parameters: method as in https://dtp.cancer.gov/dtpstandard/dwindex/index.jsp; settings: ref https://dtp.cancer.gov/dtpstandard/dwindex/index.jsp; cited from earlier work
[24] = test system: A549/ATCC; parameters: method as in https://dtp.cancer.gov/dtpstandard/dwindex/index.jsp; settings: ref https://dtp.cancer.gov/dtpstandard/dwindex/index.jsp; cited from earlier work
[25] = test system: SF-268; parameters: method as in https://dtp.cancer.gov/dtpstandard/dwindex/index.jsp; settings: ref https://dtp.cancer.gov/dtpstandard/dwindex/index.jsp; cited from earlier work
[26] = test system: T-47D; parameters: method as in https://dtp.cancer.gov/dtpstandard/dwindex/index.jsp; settings: ref https://dtp.cancer.gov/dtpstandard/dwindex/index.jsp; cited from earlier work
[27] = test system: NCI-H322M; parameters: method as in https://dtp.cancer.gov/dtpstandard/dwindex/index.jsp; settings: ref https://dtp.cancer.gov/dtpstandard/dwindex/index.jsp; cited from earlier work
[28] = test system: MOLT-4; parameters: method as in https://dtp.cancer.gov/dtpstandard/dwindex/index.jsp; settings: ref https://dtp.cancer.gov/dtpstandard/dwindex/index.jsp; cited from earlier work
[29] = test system: 786-0; parameters: method as in https://dtp.cancer.gov/dtpstandard/dwindex/index.jsp; settings: ref https://dtp.cancer.gov/dtpstandard/dwindex/index.jsp; cited from earlier work
[30] = test system: RXF 393; parameters: method as in https://dtp.cancer.gov/dtpstandard/dwindex/index.jsp; settings: ref https://dtp.cancer.gov/dtpstandard/dwindex/index.jsp; cited from earlier work
[31] = test system: ACHN; parameters: method as in https://dtp.cancer.gov/dtpstandard/dwindex/index.jsp; settings: ref https://dtp.cancer.gov/dtpstandard/dwindex/index.jsp; cited from earlier work
[32] = test system: CNS Cancer subpanel tumor cell lines; settings: cited from earlier work
[33] = test system: HOP-62; parameters: method as in https://dtp.cancer.gov/dtpstandard/dwindex/index.jsp; settings: ref https://dtp.cancer.gov/dtpstandard/dwindex/index.jsp; cited from earlier work
[34] = test system: SK-OV-3; parameters: method as in https://dtp.cancer.gov/dtpstandard/dwindex/index.jsp; settings: ref https://dtp.cancer.gov/dtpstandard/dwindex/index.jsp; cited from earlier work
[35] = test system: UACC-62; parameters: method as in https://dtp.cancer.gov/dtpstandard/dwindex/index.jsp; settings: ref https://dtp.cancer.gov/dtpstandard/dwindex/index.jsp; cited from earlier work
[36] = test system: MALME-3M; parameters: method as in https://dtp.cancer.gov/dtpstandard/dwindex/index.jsp; settings: ref https://dtp.cancer.gov/dtpstandard/dwindex/index.jsp; cited from earlier work
[37] = test system: KM12; parameters: method as in https://dtp.cancer.gov/dtpstandard/dwindex/index.jsp; settings: ref https://dtp.cancer.gov/dtpstandard/dwindex/index.jsp; cited from earlier work
[38] = test system: Breast Cancer subpanel tumor cell lines; settings: cited from earlier work
[39] = test system: Prostate Cancer subpanel tumor cell lines; settings: cited from earlier work
[40] = read-out: GI50, subpanel average, ref https://dtp.cancer.gov/dtpstandard/dwindex/index.jsp
[41] = read-out: LC50, subpanel average, ref https://dtp.cancer.gov/dtpstandard/dwindex/index.jsp
[42] = ref https://dtp.cancer.gov/dtpstandard/dwindex/index.jsp

For `C#Cc1cccc(Nc2ncnc3cc(OCCOC)c(OCCOC)cc23)c1` [Erlotinib, erlotinib], the GI50 [1] is listed as 10 µM, the GI50 [2] is listed as 100 µM and the GI50 [3] is listed as 39.8 µM. For the same molecule, the GI50 [4] was 0.316 µM, the GI50 [5] was 6.31 µM and the GI50 [6] was 50.1 µM. For the same molecule, the GI50 [7, 40] was 27.9 µM, the CC50 [7, 41] was > 100 µM and the “TGI, subpanel average” value [7, 42] was 96.57 µM. The GI50 [8] was 50.1 µM, the GI50 [9] was 31.6 µM and the GI50 [10] was 6.31 µM. For the same molecule, the GI50 [11] was 100 µM, the GI50 [12] was 12.6 µM and the GI50 [13] was 31.6 µM. For the same molecule, the GI50 [14] was 1 µM, the GI50 [15] was 7.94 µM and the GI50 [16] was 1.58 µM. For the same molecule, the GI50 [17] was 1 µM, the GI50 [18] was 3.98 µM and the GI50 [19] was 25.1 µM. The GI50 [20, 40] was 5.52 µM, the CC50 [20, 41] was 97.1 µM and the “TGI, subpanel average” value [20, 42] was 74.41 µM. For the same molecule, the GI50 [21] was 7.94 µM, the GI50 [22] was 39.8 µM and the GI50 [23] was 6.31 µM. For the same molecule, the GI50 [24] was 10 µM, the GI50 [25] was 15.8 µM and the GI50 [26] was 3.98 µM. The GI50 [27] was 0.1 µM, the GI50 [28] was 25.1 µM and the GI50 [29] was 10 µM. The GI50 [30] was 3.98 µM, the GI50 [31] was 0.199 µM and the GI50 [32, 40] was 17 µM. For the same molecule, the CC50 [32, 41] was > 100 µM, the “TGI, subpanel average” value [32, 42] was 82.11 µM and the GI50 [33] was 15.8 µM. For the same molecule, the GI50 [34] was 0.5 µM, the GI50 [35] was 3.16 µM and the GI50 [36] was 1.58 µM. The GI50 [37] was 79.4 µM, the GI50 [38, 40] was 24.7 µM and the CC50 [38, 41] was 96.4 µM. The “TGI, subpanel average” value [38, 42] was 70.53 µM, the GI50 [39, 40] was 20.9 µM and the CC50 [39, 41] was > 100 µM. For the same molecule, the “TGI, subpanel average” value [39, 42] was “c (compounds showed values ≥ 100 μM)”.
